Assay results: patent publication US10143666B2, “Small molecule inhibitors targeting CAG-repeat RNA toxicity in polyglutamine diseases” (The Chinese University of Hong Kong, priority 2015, dated 2018)

Tested on: EGFPCAG78 RNA expressing SK-N-MC cells
Test: LDH cytotoxicity assay, EGFPCAG78 RNA expressing SK-N-MC cells
Assay type: cell-based, human
Conditions: 72 hours post-transfection and treatment
Protocol: It was next investigated whether DB213 could mitigate expanded CAG-repeat RNA-mediated toxicity in SK-N-MC human neuronal cell. […] Taken together, DB213 could suppress the expanded CAG RNA-mediated but not polyQ protein-mediate toxicity in human neuronal cell.
SK-N-MC human neuronal cells were seeded on a 24-well plate and lactate dehydrogenase enzyme activity in the cell culture medium was measured 72 hours post-transfection and drugs treatment using the Cytotox 96 non-radioactive cytotoxicity assay (Promega).

`CN(C)CCNC(=N)c1ccc(C(=N)NCCN(C)C)cc1.Cl.Cl.Cl.Cl` [DB213_D1] was tested, and the “Cell death induced by EGFPCAG78 RNA (LDH assay)” value was “did not rescue the cell death”.
